ChEMBL document CHEMBL6074674, “Development of Novel Silicon-Based Hydrophobic Tags (SiHyT) for Targeted Proteins Degradation” (J Med Chem, 2024)
Calls of active or inactive are those of the source. The calls are words filed in the database; no cut-off is given here.

Assays:
PC-9 [1] = experiment: SiHyT-mediated degrader activity at RNF149/EGFR mutant in human PC-9 cells assessed as induction of EGFR degradation by measuring decrease in EGFR level at 2 uM measured after 9 hrs by western blot analysis; type: cell-based
L02 = experiment: Cytotoxicity against human LO2 cells assessed as reduction in cell viability; type: toxicity, cell-based
HCC827 [2] = experiment: Inhibition of cell invasion in human HCC827 cells at 0.25 to 2 uM incubated for 12 hrs by Transwell assay; type: functional, cell-based; conditions: dose 0.25-2 µM
[3] = Toxicity in mouse assessed as pathological changes in heart administered for 14 days by Hematoxylin-Eosin staining based analysis; type: tissue-based; conditions: in vivo, 336 h, time 14 day
[4] = tested on: E3 ubiquitin-protein ligase RNF149/Epidermal growth factor receptor (Homo sapiens), P00533+Q8NC42 [UNDEFINED MUTATION]; experiment: SiHyT-mediated degrader activity at RNF149/EGFR mutant in human HCC827 cells assessed as induction of EGFR degradation by measuring EGFR expression level at 1 uM incubated for 24 hrs followed by drug wash-out and measured after 24 hrs by western blot analysis; type: cell-based
Chain of E3 ubiquitin-protein ligase RNF149/Epidermal growth factor receptor (Homo sapiens), P00533+Q8NC42 [UNDEFINED MUTATION] (P00533 whole entry, looked up, stated change not applied): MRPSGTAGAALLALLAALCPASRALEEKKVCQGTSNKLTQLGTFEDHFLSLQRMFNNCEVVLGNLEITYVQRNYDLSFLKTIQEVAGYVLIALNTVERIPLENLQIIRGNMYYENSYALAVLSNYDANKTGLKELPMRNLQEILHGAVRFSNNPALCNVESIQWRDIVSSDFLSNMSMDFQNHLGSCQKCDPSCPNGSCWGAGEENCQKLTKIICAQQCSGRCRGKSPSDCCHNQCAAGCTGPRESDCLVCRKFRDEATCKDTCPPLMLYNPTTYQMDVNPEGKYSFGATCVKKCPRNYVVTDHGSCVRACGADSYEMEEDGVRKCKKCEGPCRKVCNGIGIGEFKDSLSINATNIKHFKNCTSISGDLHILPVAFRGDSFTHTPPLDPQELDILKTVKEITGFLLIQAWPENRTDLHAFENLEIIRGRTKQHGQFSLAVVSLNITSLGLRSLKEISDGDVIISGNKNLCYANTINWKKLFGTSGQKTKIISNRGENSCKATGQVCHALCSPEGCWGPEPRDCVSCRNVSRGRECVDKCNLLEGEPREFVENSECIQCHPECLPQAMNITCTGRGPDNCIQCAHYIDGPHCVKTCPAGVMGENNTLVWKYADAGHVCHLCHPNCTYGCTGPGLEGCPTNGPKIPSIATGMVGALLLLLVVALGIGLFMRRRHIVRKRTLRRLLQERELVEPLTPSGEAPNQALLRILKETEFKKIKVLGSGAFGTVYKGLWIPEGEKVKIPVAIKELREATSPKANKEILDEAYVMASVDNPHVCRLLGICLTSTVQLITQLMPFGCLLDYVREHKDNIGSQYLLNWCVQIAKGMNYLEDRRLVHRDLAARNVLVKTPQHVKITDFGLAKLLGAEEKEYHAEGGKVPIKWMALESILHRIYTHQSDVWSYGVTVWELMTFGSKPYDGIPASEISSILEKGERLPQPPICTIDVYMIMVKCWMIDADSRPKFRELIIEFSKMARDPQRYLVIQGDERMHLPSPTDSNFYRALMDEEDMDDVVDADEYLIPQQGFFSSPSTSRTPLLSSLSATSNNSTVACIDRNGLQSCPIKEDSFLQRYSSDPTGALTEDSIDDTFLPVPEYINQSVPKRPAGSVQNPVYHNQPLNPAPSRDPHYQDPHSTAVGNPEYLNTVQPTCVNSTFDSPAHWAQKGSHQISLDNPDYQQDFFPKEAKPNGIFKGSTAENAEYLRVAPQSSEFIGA
Chain of E3 ubiquitin-protein ligase RNF149/Epidermal growth factor receptor (Homo sapiens), P00533+Q8NC42 [UNDEFINED MUTATION] (Q8NC42 whole entry, looked up, stated change not applied): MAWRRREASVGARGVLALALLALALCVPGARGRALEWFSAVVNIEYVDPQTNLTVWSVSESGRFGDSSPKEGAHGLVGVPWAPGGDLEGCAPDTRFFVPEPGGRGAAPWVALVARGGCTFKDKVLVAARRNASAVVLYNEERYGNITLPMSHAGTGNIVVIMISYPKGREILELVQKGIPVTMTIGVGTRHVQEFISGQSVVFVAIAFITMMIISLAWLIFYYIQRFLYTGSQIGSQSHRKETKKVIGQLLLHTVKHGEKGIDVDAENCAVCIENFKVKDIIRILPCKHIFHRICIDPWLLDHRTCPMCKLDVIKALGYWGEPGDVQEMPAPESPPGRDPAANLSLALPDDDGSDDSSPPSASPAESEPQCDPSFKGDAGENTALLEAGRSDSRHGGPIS

[5] = Toxicity in mouse assessed as pathological changes in spleen administered for 14 days by Hematoxylin-Eosin staining based analysis; type: tissue-based; conditions: in vivo, 336 h, time 14 day
[6] = tested on: E3 ubiquitin-protein ligase RNF149/Epidermal growth factor receptor (Homo sapiens), P00533+Q8NC42 [UNDEFINED MUTATION]; experiment: (§1) SiHyT-mediated degrader activity at RNF149/EGFR mutant in human HCC827 cells assessed as induction of EGFR degradation cells incubated in serum-free media for 8 hrs followed by incubation with compound for 24 hrs by western blot analysis; type: cell-based
[7] = target: E3 ubiquitin-protein ligase RNF149/Epidermal growth factor receptor (Homo sapiens, UniProt P00533+Q8NC42); experiment: as §1; type: cell-based
Chain of E3 ubiquitin-protein ligase RNF149/Epidermal growth factor receptor (P00533 whole entry, looked up, change not shown): as the sequence (P00533 whole entry, looked up, stated change not applied) above
Chain of E3 ubiquitin-protein ligase RNF149/Epidermal growth factor receptor (Q8NC42 whole entry, looked up, change not shown): as the sequence (Q8NC42 whole entry, looked up, stated change not applied) above

[8] = tested on: E3 ubiquitin-protein ligase RNF149/Epidermal growth factor receptor (Homo sapiens), P00533+Q8NC42 [UNDEFINED MUTATION]; experiment: SiHyT-mediated degrader activity at RNF149/EGFR mutant in human HCC827 cells assessed as induction of EGFR degradation by measuring decrease in EGFR expression level at 1 uM pretreated with E1 ligase inhibitor, PYR41 for 4 hrs followed by incubation with compound for 24 hrs by western blot analysis; type: cell-based
HUVEC = experiment: Cytotoxicity against human HUVEC cells assessed as reduction in cell viability; type: toxicity, cell-based
PC-9 [9] = experiment: SiHyT-mediated degrader activity at RNF149/EGFR mutant in human PC-9 cells assessed as induction of EGFR degradation by measuring decrease in EGFR level at 2 uM measured after 24 hrs by western blot analysis; type: cell-based
[10] = Tmax in ICR mouse at 10 mg/kg, po by LC-MS/MS analysis; type: ADME, organism-based; conditions: in vivo
[11] = tested on: E3 ubiquitin-protein ligase RNF149/Epidermal growth factor receptor (Homo sapiens), P00533+Q8NC42 [UNDEFINED MUTATION]; experiment: (§2) SiHyT-mediated degrader activity at RNF149/EGFR mutant in human HCC827 cells assessed as induction of EGFR degradation by measuring decrease in EGFR expression level at 1 uM pretreated with lysosome inhibitor, 3-MA for 4 hrs followed by incubation with compound for 24 hrs by western blot analysis; type: cell-based
[12] = Half life in ICR mouse at 1 mg/kg, iv by LC-MS/MS analysis; type: ADME, organism-based; conditions: in vivo
[13] = Cmax in ICR mouse at 10 mg/kg, po by LC-MS/MS analysis; type: ADME, organism-based; conditions: in vivo
PC-9 [14] = experiment: Induction of interaction between RNF149/EGFR mutant in human PC-9 cells by pull-down based LC-MS/MS analysis; type: cell-based
[15] = Intrinsic clearance of the compound in mouse liver microsomes at 1 uM in presence of NADPH by LC-MS/MS analysis; type: ADME, Microsome; conditions: read-out: CLH
HCC827 [16] = experiment: Antiproliferative activity against human HCC827 cells assessed as decrease in cell survival measured after 72 hrs by CCK-8 assay; type: functional, cell-based; conditions: HCC827, 72 h
[17] = tested on: E3 ubiquitin-protein ligase RNF149/Epidermal growth factor receptor (Homo sapiens), P00533+Q8NC42 [UNDEFINED MUTATION]; experiment: as §2, with “proteasome” for “lysosome”, “MG-132” for “3-MA”; type: cell-based
[18] = Toxicity in mouse assessed as pathological changes in liver administered for 14 days by Hematoxylin-Eosin staining based analysis; type: tissue-based; conditions: in vivo, 336 h, time 14 day
[19] = AUC in ICR mouse at 10 mg/kg, po by LC-MS/MS analysis; type: ADME, organism-based; conditions: in vivo
[20] = Half life of the compound in human liver microsomes at 1 uM in presence of NADPH by LC-MS/MS analysis; type: ADME, Microsome
HCC827 [21] = experiment: Inhibition of colony formation in human HCC827 cells assessed as inhibition of malignant clonal growth at 0.5 to 1 uM measured after 7 days by crystal violet staining based analysis; type: functional, cell-based; conditions: dose 0.5-1 µM, time 7.0 day
[22] = tested on: E3 ubiquitin-protein ligase RNF149/Epidermal growth factor receptor (Homo sapiens), P00533+Q8NC42 [UNDEFINED MUTATION]; experiment: SiHyT-mediated degrader activity at RNF149/EGFR mutant in human HCC827 cells assessed as induction of EGFR degradation by measuring decrease in half-time of EGFR at 1 uM incubated for 6 to 24 hrs in presence of protein synthesis inhibitor, cycloheximide by western blot analysis; type: cell-based; conditions: time 6-24 hrs
[23] = Half life in ICR mouse at 10 mg/kg, po by LC-MS/MS analysis; type: ADME, organism-based; conditions: in vivo

COc1cc2ncnc(Nc3ccc(F)c(Cl)c3)c2cc1OCCn1cc(CCCO[Si](c2ccccc2)(c2ccccc2)C(C)(C)C)nn1
Activity (PC-9 [1]): Active | Activity (L02): Toxic | inhibition (HCC827 [2]): Active | Activity [3]: Non-toxic | Activity [4]: inactive | Activity [5]: Non-toxic | Activity [6]: Dose-dependent-effect | DC50 [7]: 750 nM | Activity [8]: inactive | Activity (HUVEC): Toxic | Activity (PC-9 [9]): Active | Tmax [10]: 1 h | Activity [11]: Active | half-life [12]: 2.18 h | Cmax [13]: 683 ng/mL | Activity (PC-9 [14]): Active | CLint scaled at 1 µM [15]: 21.9 mL/min/kg | IC50 (HCC827 [16]): 70 nM | Activity [17]: inactive | Activity [18]: Non-toxic | AUC [19]: 1876.65 ng·mL·h | half-life at 1 µM [20]: > 1 h | inhibition (HCC827 [21]): Active | Activity [22]: Active | half-life [23]: 1.29 h
